The source of these data is patent US20240166627A1, “Terpyridinedione compound or salt thereof, and preparation method and application thereof” (SHENZHEN SALUBRIS PHARMACEUTICALS CO., LTD., priority 2021, published 2024).

Values after ≈ are worked out from the molar mass of the structure shown.

One may read the solubility as how much of the substance goes into solution per volume. A lower solubility goes with a poorly soluble substance.

One series addresses p38α/MK2 complex (Homo sapiens, UniProt P49137+Q16539). The experiment in a line: p38α/MK2 complex kinase screening experiment (IMAP FP). Format: biochemical. The settings on record: p38α 0.2 nM, MK2 unactive 1 nM, HSP27 substrate 1 μM, ATP 10 μM; read-out: IC50 value that the compound inhibits p38α/MK2 complex. As to the method: A certain amount of a drug is weighted and prepared into a 10 mM of mother solution by using DMSO; the mother solution is diluted to 100 μM (100× working solution) in two steps; and then, the solution is diluted 3-fold to 33.33 μM, 11.11 μM, 3.70 μM, 1.23 μM, 0.41 μM, 0.14 μM, 0.046 μM, 0.015 μM, and 0.005 μM, successively. DMSO control is also arranged.
Then, a series of diluted DMSO drugs are diluted 25 folds with 1×IMAP Reaction Buffer as a 4× drug working solution.
10 gradient concentrations and 2 duplicated wells are set to each group of compounds; and a DMSO control group and a negative control group (DMSO, no ATP) are additionally set.
• c), after 1 h of incubation at room temperature, 1× Progressive Binding Solution is added to end the enzymatic reaction; after 30 min of incubation, a BMGPHERASTER FSX multifunctional microplate reader is used to detect a Fluorescence Polarization (FP) signal [FP(Ex485/Em520/Em520 nm)].

A short description of series [1]: Determination of solubility. Format: physicochemical. The settings on record: aqueous buffer, thermodynamic from solid, 37° C. 1 h. The method, then: About 0.5 mg of a to-be-tested sample in a centrifuge tube is weighted, an appropriate amount of DMSO is added to completely dissolve the sample, and then methanol is added to make up to 1 ml.
(If there are more pH values to be investigated, the preparation method may be deduced by analogy).
3. The prepared control solution and test solution are simultaneously put into a 37° C. water bath and heated for 1 h, after 1 h, the solutions are taken out and cooled to room temperature, and then the solutions are filtered with a 0.22 μm filter membrane for sample injection.
4. The concentration of the sample in the test solution is calculated according to C=(A*(ms/vs))/AS, and experiment results are shown in Table 2.
Note: ms, vs and AS are the weight, volume and peak area of the sample in the control solution, respectively.
A is the peak area of the test solution.

In series [2] the test system is production of TNFα in U937. Nature of the series: Releasing TNFα from U937 induced by LPS. Format: cell-based. The settings on record: Homo sapiens, U-937; PMA-differentiated U937, LPS 100 ng/ml, 4 h; read-out: IC50 value that the compound inhibits the production of TNFα. In outline:
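U937 cells differentiated with PMA (20 ng/ml, 48 h) were pretreated with compound (0.1% DMSO final) for 30 min at 37 °C, then stimulated with LPS (100 ng/ml) for 4 h. Supernatant TNFα was quantified by ELISA against a kit standard curve, and IC50 came from nonlinear fitting.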

Chain of p38α/MK2 complex (Q16539 whole entry): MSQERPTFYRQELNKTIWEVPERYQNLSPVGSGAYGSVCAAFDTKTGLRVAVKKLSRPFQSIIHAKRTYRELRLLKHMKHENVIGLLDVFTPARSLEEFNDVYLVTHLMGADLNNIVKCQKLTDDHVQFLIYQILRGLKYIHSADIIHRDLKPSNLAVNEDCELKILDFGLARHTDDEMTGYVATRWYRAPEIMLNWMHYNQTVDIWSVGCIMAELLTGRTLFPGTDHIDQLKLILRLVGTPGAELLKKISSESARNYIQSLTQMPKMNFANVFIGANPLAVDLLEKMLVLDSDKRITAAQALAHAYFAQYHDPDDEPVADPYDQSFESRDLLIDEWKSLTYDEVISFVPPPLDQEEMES
Chain of p38α/MK2 complex (P49137 whole entry): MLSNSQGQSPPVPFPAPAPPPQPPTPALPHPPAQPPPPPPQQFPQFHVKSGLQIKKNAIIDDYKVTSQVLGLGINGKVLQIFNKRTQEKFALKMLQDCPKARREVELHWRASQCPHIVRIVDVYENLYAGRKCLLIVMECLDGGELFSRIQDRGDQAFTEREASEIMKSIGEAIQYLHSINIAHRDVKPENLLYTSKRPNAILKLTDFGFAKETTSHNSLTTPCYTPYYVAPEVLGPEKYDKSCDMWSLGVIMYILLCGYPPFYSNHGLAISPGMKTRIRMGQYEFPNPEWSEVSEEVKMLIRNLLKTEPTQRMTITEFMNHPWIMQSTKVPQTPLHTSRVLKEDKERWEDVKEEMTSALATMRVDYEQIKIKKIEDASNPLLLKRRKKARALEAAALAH

As for `Cc1cnc(-n2cccc(C(C)(C)O)c2=O)cc1-n1c(C)cc(OCc2ncc(F)cc2F)c(Cl)c1=O` [Comparative example 1], the IC50 on p38α/MK2 complex is 2.6 nM; in series [2] it was 1.63 nM. The solubility at 1 h was found to be 427 µg/mL (≈ 807 µM) in series [1] (pH = 2.0, PBS buffer) and 595 µg/mL (≈ 1130 µM) in series [1] (pH = 7.4, PBS buffer).
